Experimental data published in the NIST ThermoML archive (doi:10.1016/j.tca.2014.06.031).

What was measured:
[1] = xn = mol fraction of the nth substance listed; details: 101 kPa, Liquid; for speed of sound: Frequency=3 MHz, Sing-around technique in a fixed-path interferometer; for mass density: Vibrating tube method
[2] = refractive index (Na D-line) (dimensionless); xn = mol fraction of the nth substance listed; details: 101 kPa, Liquid, Standard Abbe refractometry

CCCCCCC(=O)O [heptanoic acid] + CCCCC(=O)O
Details	mass density, [1] [kg/m3]	refractive index, [2]	speed of sound, [1] [m/s]
293.15 K, x1 = 0.0641	937.59	1.4099	1238.8
293.15 K, x1 = 0.1207	936.02	1.4111	1242.9
293.15 K, x1 = 0.2317	933.14	1.41293	1250.6
293.15 K, x1 = 0.3413	930.46	1.41469	1257.9
293.15 K, x1 = 0.4383	928.25	1.41617	1264.1
293.15 K, x1 = 0.5402	926.08	1.4176	1270.3
293.15 K, x1 = 0.6442	923.97	1.41903	1276.3
293.15 K, x1 = 0.7342	922.25	1.42021	1281.4
293.15 K, x1 = 0.8259	920.58	1.42135	1286.4
293.15 K, x1 = 0.9173	919	1.42244	1291.2
293.15 K, x1 = 0.962	918.26	1.42297	1293.4
293.15 K, x1 = 1	917.65	1.42336	1295.4
298.15 K, x1 = 0.0641	933.06	1.40789	1220.8
298.15 K, x1 = 0.1207	931.51	1.40904	1225
298.15 K, x1 = 0.2317	928.68	1.41092	1232.8
298.15 K, x1 = 0.3413	926.05	1.41267	1240.1
298.15 K, x1 = 0.4383	923.88	1.41413	1246.3
298.15 K, x1 = 0.5402	921.74	1.41562	1252.5
298.15 K, x1 = 0.6442	919.68	1.41705	1258.6
298.15 K, x1 = 0.7342	917.98	1.4182	1263.7
298.15 K, x1 = 0.8259	916.35	1.41936	1268.7
298.15 K, x1 = 0.9173	914.79	1.42048	1273.5
298.15 K, x1 = 0.962	914.07	1.42099	1275.8
298.15 K, x1 = 1	913.47	1.42138	1277.7
303.15 K, x1 = 0.0641	928.52	1.40585	1202.7
303.15 K, x1 = 0.1207	926.99	1.40698	1206.9
303.15 K, x1 = 0.2317	924.22	1.40886	1214.7
303.15 K, x1 = 0.3413	921.64	1.41062	1222.1
303.15 K, x1 = 0.4383	919.51	1.41208	1228.3
303.15 K, x1 = 0.5402	917.4	1.41356	1234.6
303.15 K, x1 = 0.6442	915.38	1.41498	1240.7
303.15 K, x1 = 0.7342	913.71	1.4162	1245.8
303.15 K, x1 = 0.8259	912.11	1.41733	1250.8
303.15 K, x1 = 0.9173	910.58	1.41842	1255.7
303.15 K, x1 = 0.962	909.87	1.41896	1257.9
303.15 K, x1 = 1	909.29	1.41935	1259.9
308.15 K, x1 = 0.0641	923.98	1.40383	1184.8
308.15 K, x1 = 0.1207	922.48	1.40496	1189
308.15 K, x1 = 0.2317	919.75	1.40684	1196.9
308.15 K, x1 = 0.3413	917.23	1.40857	1204.2
308.15 K, x1 = 0.4383	915.14	1.41004	1210.5
308.15 K, x1 = 0.5402	913.07	1.41151	1216.8
308.15 K, x1 = 0.6442	911.08	1.41294	1223
308.15 K, x1 = 0.7342	909.45	1.41413	1228.1
308.15 K, x1 = 0.8259	907.87	1.41531	1233.1
308.15 K, x1 = 0.9173	906.38	1.41643	1238
308.15 K, x1 = 0.962	905.68	1.41695	1240.3
308.15 K, x1 = 1	905.11	1.41733	1242.2
313.15 K, x1 = 0.0641	919.44	1.40175	1167
313.15 K, x1 = 0.1207	917.97	1.40283	1171.2
313.15 K, x1 = 0.2317	915.29	1.40471	1179.1
313.15 K, x1 = 0.3413	912.82	1.40649	1186.6
313.15 K, x1 = 0.4383	910.77	1.40796	1192.9
313.15 K, x1 = 0.5402	908.74	1.40944	1199.2
313.15 K, x1 = 0.6442	906.79	1.41086	1205.4
313.15 K, x1 = 0.7342	905.19	1.41209	1210.5
313.15 K, x1 = 0.8259	903.64	1.41324	1215.6
313.15 K, x1 = 0.9173	902.17	1.41437	1220.4
313.15 K, x1 = 0.962	901.49	1.4149	1222.7
313.15 K, x1 = 1	900.94	1.4153	1224.7
